Patent US20250032651A1, “[177LU] LUTETIUM-PSMA I&T COMPOSITION AND DOSIMETRY, KIT, METHOD OF MAKING, AND METHOD OF USING THEREOF” (Curium US LLC, priority 2022, published 2025)

Test: Normal organ dosimetry Cycle 1: SPECT/CT, TIACs, OLINDA 2.2.3 absorbed radiation dose
Type: in vivo, human
Settings: for Absorbed Dose, Mean / Absorbed Dose, max / Absorbed Dose, median / Absorbed Dose, min: Cycle 1, n = 26
Experimental: This Example presents the biodistribution, dosimetry, and pharmacokinetics (PK) results of a PK/Dosimetry sub-study performed as part of a Phase III trial. Twenty-seven (27) patients were administered a target activity of 7.4±10% GBq of ^177Lu-PSMA-I&T and underwent single photon emission computed tomography (SPECT)/computed tomography (CT) imaging at four timepoints (4 h, 24 h, 48 h, and 168 h). Image data was analysed to compute time-activity curves (TACs) and subsequently time-integrated activity coefficients (TIACs) in each organ of interest and in organs showing appreciable and meaningful ^177Lu-PSMA-I&T activity. Organ Level Internal Dose Assessment (OLINDA 2.2.3) was used to compute organ and whole body absorbed radiation doses for each patient.
All participating sites underwent a rigorous site setup process during which all dose calibrators, scanners, and gamma counters used in the sub-study were calibrated. Sites were allowed to enroll patients in the sub-study only after the completion and approval of all site setup processes by Invicro. Patients underwent SPECT/CT imaging, with anatomical coverage typically extending from the salivary glands to the pelvis, following the administration of a targeted 7.4±10% GBq of ^177Lu-PSMA-I&T at cycle 1. SPECT/CT imaging was performed at four timepoints: 4 h, 24 h, 48 h, and 168 h post-injection. Additionally, a subset of patients imaged at Cycle 1 (16 out of 27), were also imaged at Cycle 3 (Table 2).
The imaging data was analyzed using Invicro's VivoQuant software, a validated software used in a 21 CFR § 11-compliant workflow. The general quantification approach was based on the principles detailed in the Medical Internal Radiation Dose (MIRD) Pamphlet No. 16, No 23, and No 26 as appropriate.
Volume of interest (VOI) (kidneys, bladder, liver, lumbar vertebrae L2-L4, lacrimal glands, salivary glands [parotid and submandibular glands], and whole body) were delineated on each dataset by a trained image analyst. […] Organs were segmented either by drawing the entire contour of the organ, or by placing a sphere in a representative region of the organ and then multiplying by the organ's effective mass (based on patient's height and weight). Segmentation methods for each organ are specified in Table 3 and were consistently applied to each patient.
Clearance of the radiopharmaceutical was derived from a data-appropriate fit of each organ's TAC. Depending on the TAC's shape, the data was fitted with the sum of one, two, or three exponentials, or using a rise and fall model. Fitting was performed with in-house Python software. TIACs were calculated through analytical integration of the curve fit extrapolated to infinity. […] A whole-body TAC was derived from delineating the imaged body. The remainder activity was determined by subtracting the cumulative organ TIACs from the whole body TIAC.
Organ TIACs were input into OLINDA 2.2.3 for the computation of organ and whole-body absorbed doses, using International Commission on Radiological Protection (ICRP)-103 weighing factors. The ICRP-89 derived male phantom was used for dose estimation. Organs and body mass as defined by ICRP-89 were scaled based on height and mass using patient effective mass.^4 The voiding bladder model as implemented in OLINDA was used to determine bladder TIAC, assuming a voiding interval of 4 hours. The human alimentary tract model (HAT model) described in ICRP 100 and implemented in OLINDA was used to compute doses to the small intestine, right colon, left colon and rectum for patients showing clearance through the GI tract. The fraction of injected activity (fIA) cleared via the GI tract was determined by taking the peak fIA in the GI tract over all the imaging timepoints. […] The Red Marrow mass in L2-L4 was assumed to be 6.7% of the total red marrow mass.

[1] = Kidneys, 16 patients imaged at cycle 1 and 3
[2] = Lacrimal Glands (OLINDA sphere model), 16 patients imaged at cycle 1 and 3
[3] = Lacrimal Glands, N = 16, OLINDA sphere model
[4] = Left colon, 16 patients imaged at cycle 1 and 3
[5] = Liver, 16 patients imaged at cycle 1 and 3
[6] = Lungs, 16 patients imaged at cycle 1 and 3
[7] = Osteogenic cells, 16 patients imaged at cycle 1 and 3
[8] = Pancreas, 16 patients imaged at cycle 1 and 3

O=C([O-])CC[C@H](NC(=O)N[C@@H](CCCCNC(=O)CCCCCCC(=O)NCCCC[C@@H](NC(=O)[C@@H](Cc1ccccc1)NC(=O)[C@@H](Cc1ccc(O)c(I)c1)NC(=O)CC[C@H](C(=O)[O-])N1CCN(CC(=O)[O-])CCN(CC(=O)[O-])CCN(CC(=O)[O-])CC1)C(=O)[O-])C(=O)[O-])C(=O)[O-].[177Lu+3].[H+].[H+].[H+].[H+].[H+] [^177Lu-PSMA I&T, (3S,7S,26R,29R,32R,37R)-29-benzyl-32-(4-hydroxy-3-iodobenzyl)-5,13,20,28,31,34-hexaoxo-37-(4,7,10-tris(carboxymethyl)-1,4,7,10-tetraazacyclododecan-1-yl)-4,6,12,21,27,30,33-heptaazaheptatriacontane-1,3,7,26,37-pentacarboxylic acid; lutetium-177 (III)]
Absorbed Dose in Cycle 1, min (Heart wall, N = 16): 0.00 Gy/GBq
Absorbed Dose in Cycle 1, Mean [1]: 0.41 Gy/GBq
Absorbed Dose in Cycle 1, max [1]: 0.81 Gy/GBq
Absorbed Dose in Cycle 1, min [1]: 0.17 Gy/GBq
Absorbed Dose, Mean (Kidneys): 0.41 Gy/GBq
Absorbed Dose, max (Kidneys): 0.81 Gy/GBq
Absorbed Dose, median (Kidneys): 0.37 Gy/GBq
Absorbed Dose, min (Kidneys): 0.17 Gy/GBq
Absorbed Dose in Cycle 1, Mean (Kidneys, N = 16): 0.41 Gy/GBq
Absorbed Dose in Cycle 1, max (Kidneys, N = 16): 0.81 Gy/GBq
Absorbed Dose in Cycle 1, min (Kidneys, N = 16): 0.17 Gy/GBq
Absorbed Dose in Cycle 1, Mean [2]: 0.39 Gy/GBq
Absorbed Dose in Cycle 1, max [2]: 1.19 Gy/GBq
Absorbed Dose in Cycle 1, min [2]: 0.04 Gy/GBq
Absorbed Dose, Mean (Lacrimal Glands): 0.40 Gy/GBq
Absorbed Dose, max (Lacrimal Glands): 1.19 Gy/GBq
Absorbed Dose, median (Lacrimal Glands): 0.26 Gy/GBq
Absorbed Dose, min (Lacrimal Glands): 0.04 Gy/GBq
Absorbed Dose in Cycle 1, Mean [3]: 0.39 Gy/GBq
Absorbed Dose in Cycle 1, max [3]: 1.19 Gy/GBq
Absorbed Dose in Cycle 1, min [3]: 0.04 Gy/GBq
Absorbed Dose in Cycle 1, Mean [4]: 0.52 Gy/GBq
Absorbed Dose in Cycle 1, max [4]: 1.53 Gy/GBq
Absorbed Dose in Cycle 1, min [4]: 0.01 Gy/GBq
Absorbed Dose, Mean (Left colon): 0.47 Gy/GBq
Absorbed Dose, max (Left colon): 1.53 Gy/GBq
Absorbed Dose, median (Left colon): 0.41 Gy/GBq
Absorbed Dose, min (Left colon): 0.01 Gy/GBq
Absorbed Dose in Cycle 1, Mean (Left colon, N = 16): 0.52 Gy/GBq
Absorbed Dose in Cycle 1, max (Left colon, N = 16): 1.53 Gy/GBq
Absorbed Dose in Cycle 1, min (Left colon, N = 16): 0.01 Gy/GBq
Absorbed Dose in Cycle 1, Mean [5]: 0.04 Gy/GBq
Absorbed Dose in Cycle 1, max [5]: 0.10 Gy/GBq
Absorbed Dose in Cycle 1, min [5]: 0.01 Gy/GBq
Absorbed Dose, Mean (Liver): 0.04 Gy/GBq
Absorbed Dose, max (Liver): 0.10 Gy/GBq
Absorbed Dose, median (Liver): 0.03 Gy/GBq
Absorbed Dose, min (Liver): 0.01 Gy/GBq
Absorbed Dose in Cycle 1, Mean (Liver, N = 16): 0.04 Gy/GBq
Absorbed Dose in Cycle 1, max (Liver, N = 16): 0.10 Gy/GBq
Absorbed Dose in Cycle 1, min (Liver, N = 16): 0.01 Gy/GBq
Absorbed Dose in Cycle 1, Mean [6]: 0.01 Gy/GBq
Absorbed Dose in Cycle 1, max [6]: 0.07 Gy/GBq
Absorbed Dose in Cycle 1, min [6]: 0.00 Gy/GBq
Absorbed Dose, Mean (Lungs): 0.01 Gy/GBq
Absorbed Dose, max (Lungs): 0.07 Gy/GBq
Absorbed Dose, median (Lungs): 0.01 Gy/GBq
Absorbed Dose, min (Lungs): 0.00 Gy/GBq
Absorbed Dose in Cycle 1, Mean (Lungs, N = 16): 0.01 Gy/GBq
Absorbed Dose in Cycle 1, max (Lungs, N = 16): 0.07 Gy/GBq
Absorbed Dose in Cycle 1, min (Lungs, N = 16): 0.00 Gy/GBq
Absorbed Dose in Cycle 1, Mean [7]: 0.04 Gy/GBq
Absorbed Dose in Cycle 1, max [7]: 0.19 Gy/GBq
Absorbed Dose in Cycle 1, min [7]: 0.00 Gy/GBq
Absorbed Dose, Mean (Osteogenic cells): 0.05 Gy/GBq
Absorbed Dose, max (Osteogenic cells): 0.29 Gy/GBq
Absorbed Dose, median (Osteogenic cells): 0.02 Gy/GBq
Absorbed Dose, min (Osteogenic cells): 0.00 Gy/GBq
Absorbed Dose in Cycle 1, Mean (Osteogenic cells, N = 16): 0.04 Gy/GBq
Absorbed Dose in Cycle 1, max (Osteogenic cells, N = 16): 0.19 Gy/GBq
Absorbed Dose in Cycle 1, min (Osteogenic cells, N = 16): 0.00 Gy/GBq
Absorbed Dose in Cycle 1, Mean [8]: 0.02 Gy/GBq
Absorbed Dose in Cycle 1, max [8]: 0.07 Gy/GBq
Absorbed Dose in Cycle 1, min [8]: 0.00 Gy/GBq
Absorbed Dose, Mean (Pancreas): 0.02 Gy/GBq
Absorbed Dose, max (Pancreas): 0.07 Gy/GBq
Absorbed Dose, median (Pancreas): 0.01 Gy/GBq
